Each structure is given as a SMILES string.

This note sets out measurements from paper PMC11117721, “A Fast-Binding, Functionally Reversible, COX-2 Radiotracer for CNS PET Imaging” (ACS Central Science, 2024).

This assay deals with T1, COX-2 (Homo sapiens, UniProt P35354).
T1 sequence (P35354 18-604): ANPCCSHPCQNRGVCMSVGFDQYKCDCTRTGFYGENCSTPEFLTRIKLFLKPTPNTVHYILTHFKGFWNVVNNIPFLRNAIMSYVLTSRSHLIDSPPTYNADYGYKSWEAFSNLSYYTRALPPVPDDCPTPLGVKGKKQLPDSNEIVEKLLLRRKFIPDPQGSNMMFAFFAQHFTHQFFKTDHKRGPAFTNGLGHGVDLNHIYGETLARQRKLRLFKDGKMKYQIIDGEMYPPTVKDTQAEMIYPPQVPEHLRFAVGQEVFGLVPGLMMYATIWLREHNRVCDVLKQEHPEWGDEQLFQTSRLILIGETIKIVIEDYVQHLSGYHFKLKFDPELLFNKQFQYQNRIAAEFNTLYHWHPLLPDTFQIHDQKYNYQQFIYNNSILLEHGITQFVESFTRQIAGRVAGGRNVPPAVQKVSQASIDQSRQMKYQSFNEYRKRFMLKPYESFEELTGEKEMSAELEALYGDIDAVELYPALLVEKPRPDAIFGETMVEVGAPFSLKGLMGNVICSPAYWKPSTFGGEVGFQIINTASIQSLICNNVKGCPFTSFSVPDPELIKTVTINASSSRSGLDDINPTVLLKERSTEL
Kind of assay: PET neuroimaging of rats with localized human COX-2 overexpression (intrastriatal AAV2-GFP-hCOX2). The format is in vivo. Also on record: FLAG; P2A linker remnant (GFP cassette co-expressed, separated by P2A); host or cells: rat striatal (caudate putamen) neurons transduced in vivo with AAV2, human synapsin promoter. Conditions: COX-2 overexpression rat model. Here is the method:
Localized overexpression of human COX-2 was induced in rats with intrastriatal injections of AAV2-GFP-hCOX2 to the right caudate and AAV2-GFP (control virus) to the left caudate (Figure 2A).[53] Animals also received a systemic injection of mannitol to enhance vector spread and transgene expression.[54] To directly compare the kinetic profiles of the three COX-2 tracers, intrasubject imaging was performed in several rats. Each animal was scanned under baseline and competition (+celecoxib) conditions, testing each tracer within each animal (initial data in Figure 2). […] The full experimental design was then replicated (Figure S8 in the Supporting Information). An additional experiment lacking the control virus to the left caudate was performed to facilitate assessment of tracer uptake that could be mediated by the instrastiatal injection through blood brain barrier disruption (Figure S9 in the Supporting Information).
In accordance with Massachusetts General Hospital Institutional Animal Care and Use Committee (IACUC) protocols, Sprague Dawley rats (300-500g, Charles River Laboratories), wildtype mice (Strain […]
Respiratory rates and body temperature were monitored through all imaging and surgical procedures, generally using a respiratory pad and rectal probe. […]
Figure 9). […] Using a sterile ruler coordinates ML 2.5 mm; AP 0.5 mm was measured and marked respective t o bregma. […]

On to `[11CH3]S(=O)(=O)c1ccc(-c2cccc(NCc3ccoc3)n2)cc1` [[^11C]BRD1158], for which the “time of clear separation of right caudate PET signal from controls (left caudate and cerebellum)” value is listed as 10 min.
